# ChEMBL document CHEMBL1128922, “Thiophenesulfonamides as endothelin receptor antagonists” (Bioorg Med Chem Lett, 1996)
# Tests used:
# [1] = target: T1, Endothelin receptor type B (Homo sapiens, UniProt P24530); assay: Compound was tested for binding affinity against Endothelin B receptor
# T1 sequence (P24530 whole entry): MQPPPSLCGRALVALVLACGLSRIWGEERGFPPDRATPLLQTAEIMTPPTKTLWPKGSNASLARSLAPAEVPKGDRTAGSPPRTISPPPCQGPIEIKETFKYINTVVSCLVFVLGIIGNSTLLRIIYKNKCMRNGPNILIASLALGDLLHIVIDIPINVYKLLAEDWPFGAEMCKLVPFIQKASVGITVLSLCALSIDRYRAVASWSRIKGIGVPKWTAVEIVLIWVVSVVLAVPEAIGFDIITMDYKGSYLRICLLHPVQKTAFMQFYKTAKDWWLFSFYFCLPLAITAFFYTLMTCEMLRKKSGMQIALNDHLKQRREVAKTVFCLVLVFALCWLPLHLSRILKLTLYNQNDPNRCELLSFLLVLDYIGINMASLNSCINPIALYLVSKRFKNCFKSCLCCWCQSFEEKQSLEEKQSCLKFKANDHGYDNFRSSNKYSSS
# [2] = target: T2, Endothelin-1 receptor (Homo sapiens, UniProt P25101); assay: Compound was tested for binding affinity against Endothelin A receptor
# T2 sequence (P25101 whole entry): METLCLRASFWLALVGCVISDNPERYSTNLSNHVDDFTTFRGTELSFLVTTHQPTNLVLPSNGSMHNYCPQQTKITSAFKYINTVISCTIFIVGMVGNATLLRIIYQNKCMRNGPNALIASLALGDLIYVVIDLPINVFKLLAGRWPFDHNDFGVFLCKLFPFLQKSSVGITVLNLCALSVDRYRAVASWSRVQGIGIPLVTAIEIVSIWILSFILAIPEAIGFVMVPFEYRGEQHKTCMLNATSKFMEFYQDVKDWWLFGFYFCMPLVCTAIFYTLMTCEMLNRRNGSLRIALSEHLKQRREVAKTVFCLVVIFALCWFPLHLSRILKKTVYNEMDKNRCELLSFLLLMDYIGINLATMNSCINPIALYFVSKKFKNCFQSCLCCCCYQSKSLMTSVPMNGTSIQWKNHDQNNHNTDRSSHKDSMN
IC50 [1],IC50 [2],Structure (SMILES)
> 100 µM,2750 nM,Cc1noc(NS(=O)(=O)c2ccsc2)c1Br
74.1 µM,603 nM,Cc1noc(NS(=O)(=O)c2ccsc2-c2ccccc2)c1Br
> 100 µM,306 nM,Cc1ccccc1-c1ccsc1S(=O)(=O)Nc1onc(C)c1Br
2.45 µM,115 nM,Cc1cc(CCC(C)C)ccc1-c1ccsc1S(=O)(=O)Nc1onc(C)c1Br
,182 nM,Cc1noc(NS(=O)(=O)c2sccc2-c2ccc(CCC(C)C)cc2)c1Br
2.91 µM,42.9 nM,CCCc1ccc(-c2ccsc2S(=O)(=O)Nc2onc(C)c2Br)c(C)c1
2.9 µM,,Cc1noc(NS(=O)(=O)c2sccc2-c2ccc(CC(C)C)cc2)c1Br
13.5 µM,3390 nM,Cc1noc(NS(=O)(=O)c2cc(-c3ccccc3)cs2)c1Br
56.3 µM,1320 nM,COc1cccc(-c2ccsc2S(=O)(=O)Nc2onc(C)c2Br)c1
8.16 µM,,CCCc1ccc(-c2ccsc2S(=O)(=O)Nc2onc(C)c2Br)cc1
1.51 µM,47.9 nM,Cc1cc(CC(C)C)ccc1-c1ccsc1S(=O)(=O)Nc1onc(C)c1Br
> 100 µM,2510 nM,Cc1noc(NS(=O)(=O)c2ccccc2)c1Br
> 100 µM,16.2 nM,Cc1noc(NS(=O)(=O)c2ccccc2-c2ccccc2)c1Br
64.4 µM,819 nM,Cc1noc(NS(=O)(=O)c2sccc2-c2ccccc2)c1Br
35.5 µM,1450 nM,Cc1noc(NS(=O)(=O)c2sccc2Oc2ccccc2)c1Br
62.1 µM,334 nM,COc1ccc(-c2ccsc2S(=O)(=O)Nc2onc(C)c2Br)cc1
95.5 µM,315 nM,Cc1ccc(-c2ccsc2S(=O)(=O)Nc2onc(C)c2Br)cc1
> 100 µM,1910 nM,Cc1noc(NS(=O)(=O)c2cccs2)c1Br
39.8 µM,2600 nM,Cc1noc(NS(=O)(=O)c2sccc2Cc2ccccc2)c1Br
